From the supplement of paper PMC8882468

Tests used:
Experiment in all cases: CTG-3D luminescence at 96 h relative to day-0 seeding control (ratio to day 0); higher = more growth / less cytotoxicity; PDxO 3D drug screen, 96 h, CTG-3D normalised to day-0 seeding control.
[1] = test system: HCI-001 (organoid from a triple-negative breast cancer xenograft)
[2] = test system: HCI-005.E2 (organoid from a breast cancer xenograft with a HER2-positive history)
[3] = test system: HCI-008 (organoid from a HER2-enriched breast cancer xenograft)
[4] = test system: HCI-015 (organoid from a triple-negative breast cancer xenograft)
[5] = test system: HCI-016 (organoid from a triple-negative breast cancer xenograft)

O=C(O)C1(C(=O)O)CCC1.[NH2-].[NH2-].[Pt+2] [carboplatin]
CTG-3D luminescence at 96 h
Conditions | 12.5 pM | 0.00025 µM | 0.005 µM | 0.1 µM | 1 µM | 10 µM | 100 µM | 625 fM
[1], days in culture: 240 | 1.59 | 1.15 | 0.945 | 1.27 | 1.63 | 1.29 | 0.471 | 1.36
[1], days in culture: 260 | 1.71 | 0.978 | 2.01 | 1.09 | 1.41 | 1.48 | 0.569 | 0.928
[1], days in culture: 269 | 1.59 | 1.61 | 1.58 | 1.8 | 1.83 | 2.14 | 0.918 | 1.75
[1], days in culture: 327 | 1.5 | 1.43 | 2.04 | 1.74 | 1.53 | 1.15 | 0.592 | 1.83
[1], days in culture: 346 | 1.42 | 1.53 | 1.03 | 1.02 | 1.47 | 1.47 | 1.01 | 1.35
[1], days in culture: 364 | 1.45 | 1.09 | 1.54 | 0.839 | 1.01 | 1.56 | 0.829 | 1.51
[3], days in culture: 228 | 1.58 | 2.29 | 1.79 | 2.05 | 1.57 | 1.31 | 0.0629 | 1.63
[3], days in culture: 244 | 1.2 | 1.8 | 1.7 | 2.09 | 1.78 | 1.89 | 0.158 | 1.98
[4], days in culture: 172 | 2.56 | 2.15 | 2.48 | 1.49 | 2.05 | 0.715 | 0.354 | 2.54
[4], days in culture: 191 | 2.21 | 1.24 | 1.47 | 1.04 | 1.4 | 0.766 | 0.228 | 1.15
[4], days in culture: 218 | 1.26 | 1.7 | 1.7 | 1.77 | 1.54 | 0.685 | 0.229 | 1.75
[5], days in culture: 153 | 3.27 | 2.03 | 2.66 | 2.2 | 2.81 | 0.866 | 0.0935 | 2.64
[5], days in culture: 172 | 2.27 | 2.25 | 1.89 | 1.3 | 1.71 | 0.761 | 0.139 | 1.78
[5], days in culture: 190 | 1.49 | 1.29 | 1.53 | 1.17 | 1.46 | 0.642 | 0.12 | 1.18
[5], days in culture: 199 | 1.55 | 1.29 | 1.34 | 1.29 | 1.64 | 0.782 | 0.081 | 1.86

[2]
Conditions | CTG-3D luminescence at 96 h
12.5 pM | 1.69
0.00025 µM | 2.11
0.005 µM | 1.73
0.1 µM | 1.87
1 µM | 1.51
10 µM | 1.24
100 µM | 0.225
625 fM | 1.47
